Measured values: patent US5369111A, “Modulator agent and use thereof” (University of Vermont, priority 1992, dated 1994)
“Also recorded” adds a separate entry of the source. Read-outs that look alike come from different tables or passages of the source.

Tests used:
S180/A10 cells = test: Modulator potency in MDR cells: reversal of acquired resistance, S180/A10; format: cell-based, murine; conditions: for Modulator potency in MDR cells (minimal concentration restoring parental drug sensitivity), ADM: drug resistance level 90; for Modulator potency in MDR cells (minimal concentration restoring parental drug sensitivity), VBL: drug resistance level 10
Experimental: (§1) Mid-exponential cultures were used for all assays. The RCC-2 and RCC-5 cell lines were seeded into 24-well plates at 2×10^4 cells/well and allowed to attach to the substratum for 16-18 h prior to treatment. The S180 cell lines were seeded into culture tubes at 1×10^5 cells/ml and treated immediately. Cytotoxicity was determined by quantitation of population growth after 72 h incubation by electronic particle counter (Coulter Electronics, Hialeah, Fla.). The human tumor cell lines were used in a clonogenic assay for cytotoxicity. Cells were seeded at 300 cells/dish, incubated overnight and then treated. Colonies were scored 7-11 days later. In all assays of analog modulation of drug sensitivity, the analog was added minutes prior to the addition of cytotoxic drug.
(§2) To evaluate the ability of vindoline and the two diastereoisomeric VBL analogs to modulate the MDR phenotype (acquired resistance) of the A3 and A10 cell stains, we determined the concentration of compound required to restore drug sensitivities to parental levels. This was done by exposing the MDR cell line to a concentration range of modulator in the presence VBL, VCR and ADM at the respective IC70s of the parental cell line. The cytotoxicity curves for A3 and A10 cells, shown in FIG. 5, are distinctive among the three vinca alkaloids examined. In each cell line, there was a minimum concentration of modulator that elicited 70% growth inhibition for each drug - i.e. the reversing concentration.
(§3) *The minimal concentration of modulator required to restore the drug
(§4) sensitivity of S180/MDR cell strains to that of parental S180 cells. Data
(§5) are the averages of 2-3 separate experiments, S.D. ≤20%.

[1] = system: S180 MDR cell strains A3 and A10; test: Modulation of acquired drug resistance in the S180 MDR cell strains A3 and A10; format: cell-based, murine
Experimental: as §1, §2
FIG. 5 represents the modulation of multidrug resistance in the MDR cell strains by the vinca alkaloids. Vindoline (A), vincovaline (B), or the analog C-20'-deoxy vincovaline (C) was added, at various concentrations, to A3 (closed symbols) or A10 (opened symbols) cell cultures containing the parental IC70 of each drug: 2.0×10^-7 M. ADM (circles: 1.5×10^-8 M VBL (triangles); and 4.5×10^-8 M; VCR (squares). Population growth was determined 72 hours later.
FIG. 6 represents the relationship between cellular drug resistance level and the minimal modulator concentration required for complete reversal of drug resistance. The drugs examined were ADM (o), VBL (Δ), and VCR (.quadrature.). The amount (concentration) of modulator, necessary to reverse each level of drug resistance contained in the A3 and A10 cell lines, was determined from data such as those of FIG. 5. The values presented were averaged from duplicate samples of two separate experiments, S.D.<15% of the mean. The arrows denote the non-toxic concentration limit for the modulator; in the case of Vincovaline this value is dependent on the MDR cell strain, 2×10^-5 M, A3; 5×10^-5 M. A10.
FIG. 11 represents the modulation of multidrug resistance in the S180 MDR cell strains A3 and A10. The cellular drug resistance level is plotted against the minimal concentration of C-20'-deoxy deethyl vincovaline required for the complete reversal of drug resistance to ADM (o), VBL (Δ), and VCR (.quadrature.). In the case of high level ADM resistance […], the sensitivity of the cells was restored to 80% of the parental value. The arrow denotes the non-toxic concentration limit of the analog.

[2] = system: parental cell lines (S180, RCC-2, RCC-5); test: Modulation of intrinsic resistance in the parental cell lines (S180, RCC-2, RCC-5); format: cell-based, mouse, rat
Experimental: as §1
(§6) *calculated as the IC50 of the drug alone divided by the IC50 o
(§7) the [drug modulator] combination. Data are presented from tretments with
(§8) the nontoxic concentration limit of each analog as noted.

[3] = Inhibition of population growth (cytotoxicity), rat colon adenocarcinoma RCC-2; format: cell-based; conditions: rat, rcc-2 cells; RCC-2; Table III; read-out: Modulator concentration (nontoxic concentration limit of the analog)
Text: (§9) The analogs were examined in a panel of tumor cell lines of both intrinsic and acquired drug resistance, as described in Table 1. The rat colon adenocarcinoma cell lines RCC-2 and RCC-5 (ref. 13) were maintained in Ham's F12 medium supplemented with 5% heat-inactivated, fetal bovine serum (Sterile Systems. Hyclone, Logan, Utah). The two rat colon cancer cell lines differ in their degree of cellular differentiation; whereas the RCC-2 cell line is undifferentiated, the RCC-5 cell line is highly mucinous. The human epidermoid carcinoma cell line KB-3-1 and its MDR variant KB-Vl, selected by VBL treatment (ref. 14; courtesy of M. Gottesman. National Cancer Institute), was maintained in DMEM medium supplemented with 10%, heat-inactivated, fetal bovine serum. The murine sarcoma cell line […] and its MDR strains A3 and A10 selected by ADM treatment (ref. 15; courtesy of T. Tritton, Dept. Pharmacology, Univ. Vermont). were maintained in DMEM medium supplemented with 10% heat-inactivated, horse serum (Hazelton Biolog. Lenexa, Kans.). Stock cultures were subcultured twice weekly upon reaching the late exponential phase of population growth: population doubling times were 18-24 h. Antibiotics were not used in stock or experimental cultures. The MDR cell strains were grown in drug-free media for 48 h prior to experimental use.
as §1

RCC-5 cells = test: Modulation of intrinsic drug resistance, RCC-5; format: cell-based, rat; conditions: RCC-5; IC50 drug alone / IC50 drug + modulator, at nontoxic concentration limit
Experimental: as §1, §6, §7, §8
FIG. 9 represents the modulation of VCR sensitivity in the RCC-12 (A) and RCC-5 (B) cell lines by the analog C-20'-deoxy deethyl vincovaline. Population growth was determined after 72 hours incubation in the absence (o), or presence of 10 μM (o), 20 μM (Δ), or 50 μM of analog. Data presented are from a typical experiment.

S180/A3 cells = test: Modulator potency in MDR cells: reversal of acquired resistance, S180/A3; format: cell-based, murine; conditions: for Modulator potency in MDR cells (minimal concentration restoring parental drug sensitivity), VBL: drug resistance level 3; for Modulator potency in MDR cells (minimal concentration restoring parental drug sensitivity), VCR: drug resistance level 7
Experimental: as §1, §2, §3, §4, §5

[4] = Inhibition of population growth (cytotoxicity), rat colon adenocarcinoma RCC-5; format: cell-based; conditions: rat, rcc-5 cells; RCC-5; Table III; read-out: Modulator concentration (nontoxic concentration limit of the analog)
Text: as §9, §1

RCC-2 cells = test: Modulation of intrinsic drug resistance, RCC-2; format: cell-based, rat; conditions: IC50 drug alone / IC50 drug + modulator, at nontoxic concentration limit
Experimental: as §1, §6, §7, §8

[5] = Inhibition of population growth (cytotoxicity), S180 sarcoma, parental; format: cell-based, mouse; conditions: mouse, s180 cells; S180; Table III; read-out: Modulator concentration (nontoxic concentration limit of the analog)
Text: as §9, §1

S180 cells, parental = test: Modulation of intrinsic drug resistance, parental S180; format: cell-based, murine; conditions: for Maximum sensitization of parental cells by modulator, drug ADM / Maximum sensitization of parental cells by modulator, drug VBL / Maximum sensitization of parental cells by modulator, drug VCR: S180, IC50 drug alone / IC50 drug + modulator, at nontoxic concentration limit; for modulation of sensitivity of parental S180 cells to VBL, VCR and ADM (in words): all three drugs
Experimental: as §1
The ability of the compounds to modulate drug sensitivity in parental cells was studied over a range of concentrations of each compound, from 10^-6 M to the non-toxic (IC10-20) or solubility limit. […] From such experiments, we determined a sensitivity index derived from the IC50 of the drug without modulator treatment divided by the drug IC50 at each concentration of modulator.
When the sensitivity index for each drug, VBL, VCR and ADM is plotted versus the modulator concentration (FIG. 4), we can compare the relative potencies of the compounds as modulators of drug toxicity to the parental S180 cells.
as §6, §7
FIG. 4 represents the potency of the vinca alkaloid compounds as modulators of drug sensitivity in S180 cells. The enhancement of sensitivity was calculated as the sensitivity index=IC50 of the drug alone divided by the IC50 of the drug+modulator. The IC50s for ADM (o) VBL (Δ), or VCR (.quadrature.) were determined over a concentration range of each modulator from data such as those depicted in FIG. 3. The values presented were averaged from duplicate samples of two separate experiments, S.D. <15% of the mean.

[6] = system: S180/MDR cell system and rat colon cancer cell lines; test: Cytotoxicity in the S180/MDR cell system and the rat colon cancer cell lines; format: cell-based, mouse; conditions: S-180, 72 h
Text: as §9, §1

[7] = system: S180 cell system (S180, A3, A10); test: Inherent cytotoxicity in the S180 cell system (S180, A3, A10); format: cell-based, murine
Text: as §9, §1
FIG. 2 represents the toxicity of the vinca alkaloid compounds to population growth. Vindoline, vincovaline or the analog, C-20'-deoxy vincovaline was added, at various concentrations, to S180 (.cndot.), A3 (o), or A10 (Δ) cell cultures. The population cell number was determined 72 hours later.

| SMILES | Modulator potency in MDR cells (minimal concentration restoring parental drug sensitivity), ADM (S180/A10 cells) | Modulator potency in MDR cells (minimal concentration restoring parental drug sensitivity), VBL (S180/A10 cells) [μM] | restoration of parental drug sensitivity in MDR cells (in words) ([1]; VBL, VCR, ADM) | modulation of intrinsic cellular resistance to ADM and/or VCR (in words) [2] | effect on the sensitivity of parental cells to VBL (in words) [2] | MNTC at 72 h [3] [µM] | Maximum sensitization of parental cells by modulator, drug ADM (RCC-5 cells) | Maximum sensitization of parental cells by modulator, drug VBL (RCC-5 cells) | Maximum sensitization of parental cells by modulator, drug VCR (RCC-5 cells) | Modulator potency in MDR cells (minimal concentration restoring parental drug sensitivity), VBL (S180/A3 cells) [µM] | Modulator potency in MDR cells (minimal concentration restoring parental drug sensitivity), VCR (S180/A3 cells) [μM] | MNTC at 72 h [4] [µM] | Maximum sensitization of parental cells by modulator, drug VCR (RCC-2 cells) | MNTC at 72 h [5] [µM] | Maximum sensitization of parental cells by modulator, drug ADM (S180 cells, parental) | Maximum sensitization of parental cells by modulator, drug VBL (S180 cells, parental) | Maximum sensitization of parental cells by modulator, drug VCR (S180 cells, parental) | IC50 [6] [µM] | further results |
| --- | --- | --- | --- | --- | --- | --- | --- | --- | --- | --- | --- | --- | --- | --- | --- | --- | --- | --- | --- |
| CC[C@]12C=CCN3CC[C@@]4(c5cc([C@@]6(C(=O)OC)C[C@H]7CCCN(CCc8c6[nH]c6ccccc86)C7)c(OC)cc5N(C)[C@H]4[C@@](O)(C(=O)OC)[C@@H]1OC(C)=O)[C@@H]32 [analog n° 330, C-14'-epi-C-20'-deethyl C-20'-deoxy-vinblastine] | no effect | 18. | full restoration of parental drug sensitivity was achieved for VBL and low level VCR resistance, only | modulated intrinsic cellular resistance to ADM and/or VCR | less effect on the sensitivity of parental cells to VBL | 10 | 2.2 | 2.0 | 6.0 | 5.2 | 11. | 10 | 2.0 | 20 | 4.2 | 1.0 | 2.0 | ≥ 5 | Maximum sensitization of parental cells by modulator, drug ADM (RCC-2 cells): 1.0 |
| CC[C@]12C=CCN3CC[C@@]4(c5cc([C@]6(C(=O)OC)C[C@@H]7CCCN(CCc8c6[nH]c6ccccc86)C7)c(OC)cc5N(C)[C@H]4[C@@](O)(C(=O)OC)[C@@H]1OC(C)=O)[C@@H]32 [analog n° 331, C-16' epi-C-20'-deoxy-C-20'-deethylvinblastine] | no effect | 34. | full restoration of parental drug sensitivity was achieved for VBL and low level VCR resistance, only | modulated intrinsic cellular resistance to ADM and/or VCR | less effect on the sensitivity of parental cells to VBL | 10 | 3.5 | 1.0 | 2.0 | 5.0 | 10. | 20 | 2.0 | 50 | 3.4 | 1.0 | 2.5 | ≥ 5 |  |
| CCC12C=CCN3CC[C@@]4(c5ccc(OC)cc5N(C)[C@H]4[C@@](O)(C(=O)OC)[C@@H]1OC(C)=O)[C@@H]32 (stereo partly drawn) [vindoline, reference compound] |  |  |  |  |  |  |  |  |  |  |  |  |  |  |  |  |  |  | inherent cytotoxicity / resistance profile (in words) [7]: equitoxic to parental and MDR cell lines; IC50 ([7]; Mus musculus, S-180, S180 parental and MDR cell lines, read-out: IC50 (inhibition of cell growth)): 40 µM; inherent cytotoxicity / resistance profile (in words) ([7]; S180, A3, A10): inhibited the growth of the parental and MDR cell strains with a similar dependence on concentration; reversal of high level ADM resistance (in words) (S180/A10 cells; A10 cells, 90 fold ADM resistance): limited in this activity by their own cytoxicity in the MDR cell lines; modulation of cellular resistance to VBL, VCR and ADM in MDR cell strains (in words) ([1]; A3 and A10): modulators of cellular resistance to VBL, VCR and ADM; relation of reversing concentration to degree of drug resistance (in words) ([1]; A3 and A10, VBL, VCR, ADM): This correllation was not observed; modulation of sensitivity of parental S180 cells to VBL, VCR and ADM (in words) (S180 cells, parental): sensitized S180 cells to all three drugs with a similar dependence on its concentration; also recorded: sensitized the parental S180 cells to all three drugs; modulation of sensitivity of parental S180 cells to VBL, VCR and ADM (in words) (S180 cells, parental; listed as Vindoline): no evidence of selective modulation |
